This passage reports EC50, IC50 and outcome results from PubChem BioAssay AID179 (DTP/NCI, 2004).

“And” between values parts separate entries of the source, which are not always exact repeats. Identical values can stand only once. The source made the active and inactive calls.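 The calls were made as follows: active = compounds giving half or more protection of infected cells from virus-caused growth loss, again on retest; inactive = the rest.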 Where a SMILES comes first, the peptide text is derived from it. [ ]: non-standard residue; d: D form. The star is where a group is joined. Phe(4-NO2) = N[CH](Cc1ccc([N+](=O)[O-])cc1)C(=O)O; Boc = CC(C)(C)OC(=O)*; OBn = c1ccc(CO*)cc1

The test system of this test is CEM cells HIV-1 protection, formazan growth assay. The test can be described thus: NCI AIDS Antiviral Assay. The conditions noted are these: for IC50: measured here: growth of uninfected CEM cells. The procedure, abridged: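 Protection of CEM cells against HIV-1 measured as cell growth via soluble formazan read-out, with five concentrations tested on both infected and uninfected cells; failure to protect may reflect toxicity.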

The term EC50 denotes the concentration giving half of the maximal effect. In general, IC50 refers to the midpoint of a concentration-inhibition curve. Low values mean inhibition by little substance, high ones a need for much substance. Consider `CC(CC1c2ccccc2CCc2ccccc21)CN(C)C` (stereo unspecified), for which the EC50 is greater than 200 µM and the IC50 came to 33.1 µM.
Take `C=CCC[CH2][Sn]([c]1ccccc1)([c]1ccccc1)[c]1ccccc1`: the outcome was inactive.
Turning to `CC(C)/C=N\n1c(N)c(C#N)c(C#N)c1C(C)C`, the EC50 is greater than 200 µM and the IC50 was found to be 63.1 µM.
Taken in the same sequence, the figures for `CC1=C(C2=C(C)C(=O)C(=O)c3cc(C)ccc32)c2ccc(C)cc2C(=O)C1=O` were greater than 200 µM and 0.0631 µM.
On to `O=C(Cc1nc2sc3c(c2c(=O)[nH]1)CCCC3)Nc1ccccc1`, for which the result was inactive.
As for `CC(C)CCC[C@@H](C)C1CCC2[C@@H]3CC=C4C[C@@H](OP(=O)(O)OP(=O)(O)O)CC[C@]4(C)C3CC[C@@]21C` (stereo partly specified), the EC50 is greater than 6.17 µM and the IC50 was greater than 6.17 µM.
Consider `COc1ccc(S(=O)(=O)N(C)c2ccccc2)cc1`, for which the EC50 was greater than 200 µM and the concentration for half-maximal inhibition (IC50) is 7.76 µM.
`O=C(O)C(=C\c1ccc2c(c1)OCO2)/C(=C/c1ccc2c(c1)OCO2)C(=O)O`: the outcome was inactive.
For `CC1C/C(=C\c2ccc(O)c(O)c2)C(=O)/C(=C/c2ccc(O)c(O)c2)C1` (stereo unspecified), the EC50 was greater than 200 µM and the concentration for half-maximal inhibition (IC50) is 10 µM.
On the same counts, the results for `COc1ccc2nc3cc([N+](=O)[O-])ccc3c(NCCCCCN(C)C)c2c1` are greater than 2 µM and 0.138 µM.
`S=c1sc(-c2ccccc2)c[se]1`: the EC50 was greater than 50.1 µM and the IC50 was 29.5 µM.
In the case of `N#C/C(=C/NC(=S)N=Nc1c(O)[nH]c2ccccc12)C(N)=O`, the EC50 was greater than 200 µM and the concentration for half-maximal inhibition (IC50) was 195 µM.
For the molecule `CCOC(=O)C(NC(C)=O)[CH](c1ccccc1)[Sn]([Cl])([c]1ccccc1)[c]1ccccc1` (stereo unspecified), the EC50 is greater than 200 µM and the IC50 stood at 91.2 µM.
On to `CC1=C(C(=O)Nc2ccccc2)C(c2ccc(C(C)C)cc2)C(C(=O)Nc2ccccc2)=C(C)N1`, for which the outcome was inactive.
Take `Cc1nc2c(c(=O)[nH]1)S/C(=C(/C#N)c1nc3ccccc3[nH]1)N2c1ccccc1`: the EC50 was greater than 3.63 µM and the IC50 was greater than 3.63 µM.
As for `Cc1[nH]c2ncn(N)c(=N)c2c1Cc1ccccc1`, the EC50 was greater than 200 µM and the half-inhibitory concentration (IC50) was greater than 200 µM.
`Oc1cccc2cc(Cl)cnc12`: the EC50 is greater than 20 µM and the 50% inhibitory concentration (IC50) came to 8.32 µM.
For the molecule `Cn1c(=O)c2nc(-c3ccccc3)nnc2n(C)c1=O`, the EC50 was greater than 200 µM and the IC50 was determined as 93.3 µM.
Taken in the same sequence, the figures for `Fc1ccc2c(c1)CN(CCN1COc3ccc(F)cc3C1)CO2` were greater than 8.13 µM and greater than 8.13 µM.
On the same counts, the results for `N#CSC#Cc1ccc(C#CSC#N)cc1` are greater than 200 µM and 2.4 µM.
For the molecule `CC(C)(O)/C=C\P(C)(=O)c1ccccc1` (stereo unspecified), the EC50 was greater than 200 µM and the 50% inhibitory concentration (IC50) is greater than 200 µM.
As for `C[C@H]1C2=CC(=O)CC[C@@](C)(O2)[C@H]2CC[C@]3(C)[C@@H](O)CC[C@H]3[C@H]12`, the EC50 was greater than 589 µM and the IC50 amounted to 234 µM.
On the same counts, the results for `NC(CSS(=O)(=O)O)=NCCCc1ccccc1` are greater than 200 µM and 110 µM.
Take `COc1ccc(NC(=O)CC(=O)N2N=C(c3ccccc3)C(N=Nc3ccc(S(=O)(=O)CCOS(=O)(=O)O)cc3)C2=O)cc1` (stereo unspecified): the EC50 is greater than 200 µM and the half-maximal inhibitory concentration (IC50) is greater than 200 µM.
Regarding `CC(=O)OCC1OC(N2C(c3ccccc3)=CC(c3ccco3)C(C#N)=C2S)C(OC(C)=O)C(OC(C)=O)C1OC(C)=O` (stereo unspecified), the EC50 was 178 µM and the IC50 is greater than 200 µM.
On the same counts, the results for `CCC1(CCC#N)CCc2[nH]c3ccccc3c2C1=O` (stereo unspecified) are greater than 200 µM and 174 µM.
On the same counts, the results for `CN(C)c1ccc2c(c1)-c1cc(N(C)C)ccc1C2=CC=C1C(=O)c2ccccc2C1=O` are greater than 17 µM and greater than 17 µM.
Consider `NS(=O)(=O)c1ccc(N=Cc2ccccc2O)cc1`, for which the EC50 is greater than 200 µM and the IC50 is greater than 200 µM.
`COC(=O)c1cc(C(c2cc(C(=O)OC)c(O)c(Br)c2C)C(Cl)(Cl)Cl)c(C)c(Br)c1O`: the EC50 is greater than 200 µM and the half-inhibitory concentration (IC50) amounted to 112 µM.
Regarding `COc1ccc(N=Nc2c(N)nn(C)c2N)cc1`, the outcome was inactive.
Turning to `OCC(CO)c1cnnc2ccccc12`, the EC50 is greater than 525 µM and the 50% inhibitory concentration (IC50) is greater than 525 µM.
Turning to `O=C(O)C1Cc2[nH]c3ccccc3c2C2CCCC12` (stereo unspecified), the EC50 was greater than 708 µM and the IC50 is 363 µM.
Take `O=C1c2ccccc2-c2cccc3ccc(Cc4ccc5ccccc5c4)c1c23`: the EC50 is greater than 5.13 µM and the 50% inhibitory concentration (IC50) was greater than 5.13 µM.
On to `O=C(CSc1nnc(-c2ccc(N=Cc3ccc(Cl)cc3)cc2)o1)Nc1ccccc1Cl`, for which the EC50 is greater than 269 µM and the IC50 is greater than 269 µM.
For the molecule `O=C1C=Cc2cc(Br)ccc2C12CCc1c(O)ccc3cc(Br)cc2c13` (stereo unspecified), the result was inactive.
`O=C1CCC(N2C(=O)C3C4CCC(O4)C3C2=O)C(=O)N1` (stereo unspecified): the EC50 is greater than 200 µM and the IC50 is greater than 200 µM.
As for `CCCCCCCCCCCCCCCCOC1OC(CBr)C(O)C(O)C1O` (stereo unspecified), the EC50 was greater than 8.13 µM and the half-inhibitory concentration (IC50) was greater than 8.13 µM.
Regarding `Cc1ccccc1OCC1COC(c2ccc(Cl)cc2)O1` (stereo unspecified), the EC50 was greater than 200 µM and the IC50 is greater than 200 µM.
With `O=c1[nH]c(NCc2ccc(Cl)cc2)nc2nc[nH]c12`, the EC50 is greater than 200 µM and the IC50 was found to be 55 µM.
Consider `CN1CCN(c2ccc(-n3cc(C(=O)O)c(=O)c4cc(F)c(N5CCN(C)CC5)cc43)nc2)CC1`, for which the EC50 was greater than 200 µM and the IC50 turned out to be 115 µM.
Taken in the same sequence, the figures for `COC(=O)CCC(NC(=O)OC(C)(C)C)C(=O)NC(Cc1ccc([N+](=O)[O-])cc1)C(=O)NCC(=O)OCc1ccccc1` (stereo unspecified) (Boc-Glu(OMe)-[Phe(4-NO2)]-Gly-OBn; configuration not given here) were greater than 200 µM and greater than 200 µM.
As for `C#CC(OC(=O)NC1CCCCC1)(c1ccccc1)c1ccccc1`, the EC50 is greater than 200 µM and the half-maximal inhibitory concentration (IC50) stood at 20.4 µM.
As to `CC(C)=CCC1=C(O)c2ccccc2C(=O)C1=O`, the result was inactive.
Take `CCOC(=O)c1c[nH]cc1-c1cn(S(=O)(=O)c2ccccc2)cc1C`: the EC50 is greater than 200 µM and the IC50 was found to be 50.1 µM.
Take `c1ccc([P+](Cc2ccccc2C[P+](c2ccccc2)(c2ccccc2)c2ccccc2)(c2ccccc2)c2ccccc2)cc1`: the EC50 is greater than 200 µM; the IC50 is 129 µM and 107 µM.
Consider `COC(=O)[C@@]12CC(C(C)C)[C@H]3CC(C(=O)C=C1OC)[C@H]32` (stereo partly specified), for which the outcome was inactive.
Consider `O=C(O)c1ccc(S(=O)(=O)c2cccc([N+](=O)[O-])c2)cc1`, for which the EC50 is greater than 200 µM and the IC50 is greater than 200 µM.
With `O=c1[nH]c(Nc2nc3ccccc3[nH]2)nc(O)c1Cc1ccccc1`, the EC50 was greater than 151 µM and the half-inhibitory concentration (IC50) is greater than 151 µM.
In the case of `CC(C)(C)c1ccc(SSc2ccc(C(C)(C)C)cc2)cc1`, the EC50 was greater than 200 µM and the concentration for half-maximal inhibition (IC50) worked out at 12.3 µM.
On the same counts, the results for `N#CCCN(CCC#N)c1ccc(/C=C2\N=C(c3ccccc3)N(c3ccc(F)cc3)C2=O)cc1` are greater than 200 µM and greater than 200 µM.
With `O=c1cc(CO)[nH]cc1O`, the outcome was inactive.
Regarding `COc1cc(C2C(Cl)C(=O)N2NC(=O)c2ccc(NC(C)=O)cc2)ccc1O` (stereo unspecified), the EC50 is greater than 200 µM and the concentration for half-maximal inhibition (IC50) is greater than 200 µM.
Take `CC1OC(OCC2OC(Oc3ccc(C4CC(=O)c5c(O)cc(O)cc5O4)cc3O)C(O)C(O)C2O)C(O)C(O)C1O` (stereo unspecified): the EC50 was greater than 200 µM and the half-inhibitory concentration (IC50) was greater than 200 µM.
For the molecule `CN1C(C)(C)CC(=O)C(Br)C1(C)C` (stereo unspecified), the EC50 was greater than 200 µM and the IC50 came out at 117 µM.
`O=C(/C=C\c1cccc(C(F)(F)F)c1)c1ccccc1`: the result was inactive.
Still for that read-out and setting: next, `Cn1cc(C(=O)c2ccccc2)c2ccccc2c1=O`: “inactive”.
In the case of `CCOC(=O)C(=[N+]=[N-])C(=O)CSC#N`, the EC50 is greater than 200 µM and the 50% inhibitory concentration (IC50) is 10.5 µM.
Taken in the same sequence, the figures for `S=c1[nH][nH]c(=S)c2c1[nH]c(=S)n2Cc1ccccc1` were 41.7 µM and 43.7 µM.
Taken in the same sequence, the figures for `COc1cc(NC=O)c2c(c1)SC(C)C(=O)N2` (stereo unspecified) were 141 µM and greater than 200 µM.
As for `CC(C)OC(=O)c1ccc(NCC2=CC(=O)C=CC2=O)cc1`, the EC50 was greater than 200 µM and the IC50 came to 7.76 µM.
On to `O=C1CCCCC1CN1CCCCC1` (stereo unspecified), for which the result was inactive.
Consider `CCN(CCN(CC)C(=O)NC)C(=O)NC`, for which the EC50 is greater than 200 µM and the IC50 was greater than 200 µM.
`O=c1c(/C=N/OCCCCO/N=C/c2cc3c(cc2[N+](=O)[O-])OCO3)coc2c(Cl)cc(Cl)cc12`: the EC50 was greater than 200 µM and the IC50 was found to be 75.9 µM.
Taken in the same sequence, the figures for `COc1cc(-c2cc(=O)c3ccc(O)cc3o2)cc(OC)c1OC` were greater than 200 µM and greater than 200 µM.
Taken in the same sequence, the figures for `CN=C(NCCCN1CCOCC1)c1ccc(NC(=O)c2ccc(C(=O)Nc3ccc(C(=NC)NCCCN4CCOCC4)cc3)cc2)cc1` were greater than 200 µM and 120 µM.
As for `C/C(CC(O)(C(F)(F)F)C(F)(F)F)=N/Nc1ccc([N+](=O)[O-])cc1[N+](=O)[O-]`, the EC50 is greater than 200 µM and the half-inhibitory concentration (IC50) is 1.41 µM.
Taken in the same sequence, the figures for `COc1cc(C[C@@H](C)N)cc(OC)c1` were greater than 200 µM and greater than 200 µM.
On the same counts, the results for `CC(=O)C1=C2SCCN2C(=O)CC1` are greater than 135 µM and greater than 135 µM.
Taken in the same sequence, the figures for `O=C(O)CCSCc1cc(C(=O)Nc2ccc(/C=C/c3ccc(NC(=O)c4cc(CSCCC(=O)O)c5ccccc5c4O)cc3S(=O)(=O)O)c(S(=O)(=O)O)c2)c(O)c2ccccc12` were 83.2 µM and 162 µM.
With `O=C(Nc1c[nH]c(=O)[nH]c1=O)c1ccc(S(=O)(=O)F)cc1`, the EC50 is greater than 151 µM and the concentration for half-maximal inhibition (IC50) is 85.1 µM.
Turning to `Cc1ccc(S(=O)(=O)/C(C#N)=C/NC(=S)Nc2ccccc2)cc1`, the EC50 is 170 µM and the IC50 was greater than 200 µM.
`COc1ccc(Cc2nnc(C)c3c(C)[nH]nc23)cc1OC`: the result was inactive.
